Positions count from the first letter of the chain named.
Legend:
Assay in all cases: Saturation binding of ^125I-HEAT
[1] = biological target: T1, human α1A-AR F308A variant (Homo sapiens, UniProt P35348, F308A)
T1 construct: expressed in transfected cells; host or cells: COS-7 (transient, calcium phosphate), membranes
T1 sequence (P35348 1-466 F308A): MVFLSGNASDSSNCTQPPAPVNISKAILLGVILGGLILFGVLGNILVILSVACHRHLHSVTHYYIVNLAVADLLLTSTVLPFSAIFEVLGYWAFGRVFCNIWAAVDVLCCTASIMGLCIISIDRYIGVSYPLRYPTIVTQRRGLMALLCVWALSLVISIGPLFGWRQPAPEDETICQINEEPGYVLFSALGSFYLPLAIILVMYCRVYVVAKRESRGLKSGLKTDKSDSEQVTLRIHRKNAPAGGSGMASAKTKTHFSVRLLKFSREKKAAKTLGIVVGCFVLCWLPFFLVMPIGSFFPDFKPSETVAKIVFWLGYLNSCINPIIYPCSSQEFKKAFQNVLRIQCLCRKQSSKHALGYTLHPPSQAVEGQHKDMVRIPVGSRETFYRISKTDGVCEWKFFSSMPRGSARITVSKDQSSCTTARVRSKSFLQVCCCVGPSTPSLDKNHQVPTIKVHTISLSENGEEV
From the text: (§1) α1A-AR cDNA inserted in the prK5 vector was kindly provided by Michael Brownstein (Craig Venter Institute, Rockville, MD). Point mutations were introduced into the α1A-AR gene by sense and antisense primers (Sigma-Aldrich, St Quentin-Fallavier, France) containing the desired changes, using the QuikChange Site-Directed Mutagenesis kit. The incorporation of each mutation was verified by DNA sequencing.
(§2) CHO cells stably expressing α1-ARs were kindly provided by Dr. Hervé Paris (INSERM U858, Toulouse, France) and were grown in a 50∶50 Dulbecco's Modified Eagle's Medium (DMEM)/Ham's F12 medium supplemented with 10% (v/v) foetal bovine serum (FBS), glutamine (2 mM), penicillin (100 units/ml) and streptomycin (100 µg/ml) at 37°C with 5% CO2. COS-7 cells were grown at 37°C under 5% CO2 in Dulbecco's modified Eagle's medium containing 10% fetal calf serum, 1% penicillin and 1% glutamine (Sigma-Aldrich, St Quentin-Fallavier, France). At 80% confluence, the cells were transfected using a calcium phosphate precipitation method for transient expression of the genetic construct. After 48 h incubation at 37°C, cells were harvested and the membranes were prepared as follow. Cells were washed with ice-cold phosphate buffer and centrifuged at 1700 g for 10 min (4°C). The pellet was suspended in ice-cold buffer (1 mM EDTA, 25 mM sodium phosphate, and 5 mM MgCl2, pH 7.4) and homogenized using an Potter-Elvehjem homogenizer (Fisher Scientific Labosi, Elancourt, France). The homogenate was centrifuged at 1700 g for 15 min (4°C). The sediment was resuspended in buffer, homogenized, and centrifuged at 1700 g for 15 min (4°C). The combined supernatants were centrifuged at 35,000 g for 30 min (4°C), and the pellet was suspended in the same buffer (0.1 ml/dish). […] Cells were grown in a 50∶50 Dulbecco's Modified Eagle's Medium (DMEM)/Ham's F12 medium supplemented with 10% (v/v) foetal bovine serum (FBS), glutamine (2 mM), penicillin (100 units/ml) and streptomycin (100 µg/ml) at 37°C with 5% CO2. Media was changed every 2–3 days and cells were passaged when confluent with 0.05% trypsin and 0.02% EDTA.
(§3) Binding experiments were performed in a 100 µL reaction mix at room temperature in buffer composed of 50 mM Tris-HCl, pH 7.4, 10 mM MgCl2, 1 g/L BSA. Reactions were stopped by filtration through 96 GF/C filter plates pre-incubated with 0.5% polyethylenimine.
(§4) Binding data were analyzed by nonlinear regression using the KaleidaGraph 4.0 software (Synergy software, Reading, PA). pKD values and Bmax (number of binding sites) were determined by applying a nonlinear regression to data obtained with saturation binding assays. The nonlinear regression used was BS = (Bmax*A)/KD+A, where BS is the specific binding, Bmax the number of binding sites, A the concentration of radioligand, and KD the dissociation constant of the radioligand. Data resulting from competition binding assays were analyzed using the Hill equation for IC50 and curve slope estimations. […] The linear curves were analyzed with IC50 = Ki+(L/KD)*Ki. Dissociation kinetics were analyzed using a simple equation of exponential decay BS * exp (-Koff*t), where BS is the specific binding at time zero and Koff is the dissociation rate constant. Results are expressed as mean ± s.e. mean from n independent experiments. One-way Anova test was used to compare values. A p<0.05 was accepted for statistical significance.

[2] = biological target: T2, human α1A-AR F281A variant (Homo sapiens, UniProt P35348, F281A)
T2 construct: expressed in transfected cells; host or cells: COS-7, transient (calcium phosphate)
T2 sequence (P35348 1-466 F281A): T1 sequence (P35348 1-466 F308A) with F281A, A308F
From the text: as §1, §2, §3, §4

[3] = biological target: T3, human α1A-AR M292A variant (Homo sapiens, UniProt P35348, M292A)
T3 construct: expressed in transfected cells; host or cells: COS-7 (transient, calcium phosphate), membranes
T3 sequence (P35348 1-466 M292A): T1 sequence (P35348 1-466 F308A) with M292A, A308F
From the text: as §1, §2, §3, §4

O=C1c2ccccc2CCC1CNCCc1ccc(O)c([125I])c1 (stereo not drawn) [125I-HEAT]
^125I-HEAT Ratio (loss of affinity relative to WT) ([1]; F308A): 2.4 | ^125I-HEAT pKd ([1]; F308A (7.35), saturation binding, n = 3–6): 9.66±0.11 | ^125I-HEAT Ratio (loss of affinity relative to WT) ([2]; F281A): 3.9 | ^125I-HEAT pKd ([2]; F281A (6.44), saturation binding, n = 3–6): 9.46±0.09 | ^125I-HEAT Ratio (loss of affinity relative to WT) ([3]; M292A): 2.2 | ^125I-HEAT pKd ([3]; M292A (6.55), saturation binding, n = 3–6): 9.69±0.09
